Data from patent US10881679B2, “Application of a phillyrin/phillygeninin composition in preparing a medicine or health care product for alleviating or/and treating viral diseases, and medicine or health care product for treating viral diseases” (priority 2014, dated 2021).
Marks after values point to notes of the source that are not given here.

Key:
[1] = system: rabbit fever induced by typhoid and paratyphoid vaccine; test: Rabbit fever induced by typhoid and paratyphoid vaccine; assay type: in vivo, Japanese big-ear white rabbits; settings: 50 mg/kg i.g.
Procedure: Male Japanese big-ear white rabbits with a weight 1.5˜2.0 kg were used. Before the test, WSC-411P portable digital thermometer was used to measure the normal rectal temperature twice (with certain interval for each time), and the average value was taken as the normal body temperature of rabbits. […] Each group has 6 rabbits, and the test was repeated 3 times for each group. Rabbits were fixed into a fixator. The blank control group was intravenously injected with normal saline of 1 ml/kg via the ear margin; The model control group and each drug group were intravenously injected with typhoid and paratyphoid vaccines of 0.8 ml/kg via the ear margin. After the body temperatures of the rabbits increased by 1° C. or more (requiring about 1˜1.5 h, and this test was limited to 1 h), the blank control group and the model group were administered intragastrically with 0.5% carboxymethycellulose of 1 ml/kg, and the drug groups were administered intragastrically with phillyrin/phillygeninin compositions and paracetamol respectively. The rectal temperature was measured after administration for 30, 60, 90, 120, 180 and 240 min to observe the changes in the body temperature, and difference between the groups was compared by inter-group t test processing through antipyretic percentage.

[2] = system: rat fever induced by beer yeast; test: Rat fever induced by beer yeast (Saccharomyces cerevisiae); assay type: in vivo, Wistar rats; settings: 100 mg/kg i.g.
Procedure: Male Wistar rats with a weight of 180˜200 g were used. Normal anal temperature of each rat was measured twice (at a certain interval) with a WSC-411P portable digital thermometer, and a mean of the two measurement values was taken as a normal body temperature of the rat. Then, 300 rats with body temperature at 36.5˜38° C. were selected and randomly divided into 30 groups by weight: model groups (0.5% methyl cellulose), phillyrin/phillygeninin compositions A and B that are divided into low, medium and high dose groups (2.5, 5, 10 mg/kg) respectively, phillyrin groups (13 mg/kg), phillygeninin groups (13 mg/kg), and positive drug paracetamol groups (100 mg/kg). Each group has 10 rates, and the test is repeated 3 times for each group. 10 mL/kg of 10% fresh Saccharomyces cerevisiae suspension was subcutaneously injected to the back of the rats of each group to induce fever. After administration of 10% fresh Saccharomyces cerevisiae suspension for 6.0 h, the phillyrin/phillygeninin composition and the paracetamol positive drug were administered by intragastric administration, and the same volume of 0.5% methyl cellulose is administrated to the model group by intragastric administration. Rectal temperatures were respectively measured at 1, 2, 3 and 4 h after the administration. Changes in the body temperature were observed and difference between the groups was compared by inter-group t test processing through antipyretic percentage. The above test was repeated totally 3 times.

[3] = system: rat paw swelling induced by carrageenin; test: Rat paw swelling induced by carrageenin; assay type: in vivo, Wistar rats; settings: 100 mg/kg
Procedure: Each group has 10 rats. Rats in each group were all administered by […] through the sublingual vein. Normal volume of the right hind paw of each rat in each group was measured in capillary magnification measurement method. In order to avoid errors, the measurement should be carried out in a fixed position and operated by the same person before and after administration. A mean of the two measurement values was taken as the normal volume of the right hind paw of a rat before administration. […] The difference between the groups was compared by inter-group t test processing through the difference percentage (swelling ratio) of the paw volume before and after the induced rat inflammation. [formula] Results

[4] = system: sweat gland epithelial cells of rat paws; test: Sweat secretion of rat paws (histomorphological observation method); assay type: in vivo, Wistar rats; settings: 35.0 mg/kg s.c., 30 min after administration
Description: This test is based on a mechanism that when a rat is in an excited state, in addition to the increase of sweat secretion of sweat glands, the morphology of sweat gland epithelial cells changes accordingly. Under an optical microscope, it can be seen that the sweat gland epithelial cell vacuoles increase in number and expand. Under an electron microscope, such expanded vacuoles appear to be mitochondria in the sweat gland epithelial cell swelling, breakage and fusion and expansion of secretory vesicle. Therefore, through histomorphological observation of sweat gland epithelial tissue of a rat paw, secretory activities of the sweat gland can be known.
300 Wistar rats with equal male and female number, weighing 120˜160 g were used. These rats were randomly divided into 30 groups by weight and gender: control groups (0.5% of methyl cellulose), phillygeninin groups, phillyrin groups, low, medium and high dose groups (2.5, 5, 10 mg/kg) of phillyrin/phillygeninin compositions A and B separately, and positive drug pilocarpine groups (35 mg/kg). Each group has 10 rats, the test is repeated 3 times for each group. Pilocarpine solution was administered by subcutaneous injection, the remaining groups were subjected to intragastric administration. After administration of the 0.5% of methyl cellulose in the control group for one hour, after administration of the pilocarpine in the positive drug group for 30 min, and after administration of the phillyrin, the phillygeninin and the phillyrin/phillygeninin composition for one hour, the right hind limb was instantly cut off at the ankle joint to immediately take down the footpad of the right hind limb and placed into 10% of formaldehyde solution. The footpads were fixed, dehydrated, embedded, sliced and stained with HE by using conventional methods. Changes in sweat gland epithelial cells of the rat paws from each group were observed under an optical microscope, to mainly observe the percentage of vacuolization. The differences among the various groups was performed through X^2 test for statistical analysis. The above test was repeated 3 times. Percentage of vacuolization=(the number of vacuolized sweat glands)/(the number of sweat glands observed)×100%.

[5] = system: sweat secretion of rat paws; test: Sweat secretion of rat paws (coloring method); assay type: in vivo, Wistar rats; settings: 35.0 mg/kg s.c.
Description: The test is based on a mechanism that distribution of sweat glands is present in footpads of rat paws, the amount of sweat secretion and variation thereof can be observed by using a mechanism that a purple color can be produced by contacting iodine and starch when encountered with sweat.
500 Wistar rats with equal male and female number were used, weighing of 120˜150 g. These rats were randomly divided into 50 groups by weight and gender, i.e., namely 5 groups for the control groups (0.5% methyl cellulose), 5 groups for phillyrin groups, 5 groups for phillygeninin groups, 5 groups for the low, medium and high dose groups (2.5, 5, 10 mg/kg, respectively) of phillyrin/phillygeninin compositions A and B respactively, and 5 groups for the positive drug pilocarpine groups (35 mg/kg). Each group has 10 rats, 10 groups of rates are used for each test, which has 5 time periods (1, 5, 10, 15 and 20 min). The rats were placed into a self-made rat fixation bag, and both hind limbs of the rats were exposed. Dirt on the right paws was gently cleaned away using cotton swabs containing anhydrous alcohol. Pilocarpine solution was administered by subcutaneous injection, the remaining groups were subjected to intragastric administration. At 1 h (30 min for the pilocarpine group) after administration, pre-existing sweat and sweat generated due to struggle on the right paw of each rat in each group was gently wiped away with dry cotton swabs, then the paws were coated with solution A (dissolving 2 g iodine in 100 ml anhydrous alcohol) of Hetian-gaoyuanshi's reagent. After complete dryness, the paws were thinly coated with solution B (uniform mixture of 50 g soluble starch and 100 ml castor oil) of Hetian-gaoyuanshi's reagent. The color and number of dark purple coloring spots (i.e. sweat spots) were carefully observed at 1, 5, 10, 15 and 20 min after the coating of the solution B respectively with magnifying glass. After the test was completed, statistical treatment was performed according to the rank sum test with two-sample comparison, thereby comparing the differences among the various groups.

[6] = 10 min after coating solution B
[7] = 15 min after coating solution B
[8] = 20 min after coating solution B

SMILES: CC(=O)Nc1ccc(O)cc1 [Paracetamol]
- Body temperature ([1]; 30 min after administration): 40.53 ± 0.65 °C
- antipyretic percentage (%) ([1]; 30 min after administration): −1.14 ± 0.56%
- Body temperature ([1]; 60 min after administration): 40.10 ± 0.49 °C
- antipyretic percentage (%) ([1]; 60 min after administration): −2.18 ± 0.17%
- Body temperature ([1]; 90 min after administration): 39.83 ± 0.58 °C
- antipyretic percentage (%) ([1]; 90 min after administration): −2.83 ± 0.15%
- Body temperature ([1]; 120 min after administration): 39.72 ± 0.56 °C
- antipyretic percentage (%) ([1]; 120 min after administration): −3.11 ± 0.20%
- Body temperature ([1]; 180 min after administration): 39.61 ± 0.41 °C
- antipyretic percentage (%) ([1]; 180 min after administration): −3.38 ± 0.22%
- Body temperature ([1]; 240 min after administration): 39.53 ± 0.47 °C
- antipyretic percentage (%) ([1]; 240 min after administration): −3.58 ± 0.38%
- Body temperature ([2]; 1 h after administration): 38.66 ± 0.59 °C
- antipyretic percentage (%) ([2]; 1 h after administration): −2.07 ± 0.54 %
- Body temperature ([2]; 2 h after administration): 38.19 ± 0.59 °C
- antipyretic percentage (%) ([2]; 2 h after administration): −3.27 ± 0.77 %
- Body temperature ([2]; 3 h after administration): 37.98 ± 0.19 °C
- antipyretic percentage (%) ([2]; 3 h after administration): −3.80 ± 1.43 %
- Body temperature ([2]; 4 h after administration): 37.84 ± 0.32 °C
- antipyretic percentage (%) ([2]; 4 h after administration): −4.15 ± 1.59 %

SMILES: CC(=O)Oc1ccccc1C(=O)O [Aspirin]
- Swelling percentage (%) ([3]; 15 min after inflammation induction): 8.90 ± 6.70 %
- Swelling percentage (%) ([3]; 30 min after inflammation induction): 15.6 ± 12.2 %
- Swelling percentage (%) ([3]; 60 min after inflammation induction): 20.3 ± 10.9 %
- Swelling percentage (%) ([3]; 120 min after inflammation induction): 21.6 ± 12.1 %
- Swelling percentage (%) ([3]; 180 min after inflammation induction): 26.1 ± 21.1 %
- Swelling percentage (%) ([3]; 240 min after inflammation induction): 26.1 ± 16.3 %
- Swelling percentage (%) ([3]; 300 min after inflammation induction): 34.9 ± 14.6 %
- Swelling percentage (%) ([3]; 360 min after inflammation induction): 31.9 ± 12.2 %

SMILES: CC[C@@H]1C(=O)OC[C@@H]1Cc1cncn1C [Pilocarpine]
- Number of sweat glands of vacuole [4]: 57
- percentage of vacuolization (%) [4]: 27.40*** %
- Animal number of sweat spots of level + ([5]; 1 min after coating solution B): 1 rats
- Animal number of sweat spots of level ++ ([5]; 1 min after coating solution B): 3 rats
- Animal number of sweat spots of level +++ ([5]; 1 min after coating solution B): 1 rats
- Animal number of sweat spots of level ++++ ([5]; 1 min after coating solution B): 5 rats
- Animal number of sweat spots of level − ([5]; 1 min after coating solution B): 0 rats
- Animal number of sweat spots of level + ([5]; 5 min after coating solution B): 1 rats
- Animal number of sweat spots of level ++ ([5]; 5 min after coating solution B): 2 rats
- Animal number of sweat spots of level +++ ([5]; 5 min after coating solution B): 1 rats
- Animal number of sweat spots of level ++++ ([5]; 5 min after coating solution B): 6 rats
- Animal number of sweat spots of level − ([5]; 5 min after coating solution B): 0 rats
- Animal number of sweat spots of level + [5, 6]: 0 rats
- Animal number of sweat spots of level ++ [5, 6]: 2 rats
- Animal number of sweat spots of level +++ [5, 6]: 1 rats
- Animal number of sweat spots of level ++++ [5, 6]: 6 rats
- Animal number of sweat spots of level − [5, 6]: 0 rats
- Animal number of sweat spots of level + [5, 7]: 0 rats
- Animal number of sweat spots of level ++ [5, 7]: 2 rats
- Animal number of sweat spots of level +++ [5, 7]: 1 rats
- Animal number of sweat spots of level ++++ [5, 7]: 6 rats
- Animal number of sweat spots of level − [5, 7]: 0 rats
- Animal number of sweat spots of level + [5, 8]: 0 rats
- Animal number of sweat spots of level ++ [5, 8]: 2 rats
- Animal number of sweat spots of level +++ [5, 8]: 1 rats
- Animal number of sweat spots of level ++++ [5, 8]: 6 rats
- Animal number of sweat spots of level − [5, 8]: 0 rats
